Results on one substance are retold here after patent publication US20220396777A1, “PATIENT-MATCHED ORGANOID SYSTEMS FOR STUDYING CANCER” (Dana-Farber Cancer Institute, Inc., priority 2019, published 2022).

In this assay the test system is organoids from classical versus basal-like tumors. As to the kind of experiment: IFNγ treatment of organoids from classical and basal-like tumors. Type of assay: cell-based, human. From the text:
FIG. 37—Micrographs and graph showing results of IFNγ treatment in organoids from classical and basal-like tumors.
Applicants next asked whether organoids from classical versus basal-like tumors respond differently to addition of IFNγ.

As to “IFNγ: cytokine (type II interferon) added to organoid cultures”, under “classical expression state, patient-derived PDAC organoids (FIG. 37)”, the “effect on expression state in organoids” value is “select against the classical expression state”. For the same substance, the “return to a basal state” value (patient-derived PDAC organoids (FIG. 37)) is given as “may not be sufficient to drive complete return to a basal state”. The “growth inhibition by IFNγ” value (patient-derived PDAC organoids, classical versus basal-like tumors, preliminary results (FIG. 37)) is on record as “more pronounced in organoids derived from classical tumors”.
